Measurements from patent US10973863B2, “Method for regulating, preventing and/or treating pulmonary injury” (SINPHAR PHARMACEUTICAL CO., LTD., priority 2017, dated 2021).

Legend:
[1] = test system: MMP-12; test: Western blot: MMP-12 expression in LPS-treated NR8383 cells; type: cell-based, rat; details: 0.01 μg/mL LPS; 6.25 to 50 μg/mL; 24 hours
Experimental: (§1) Rat alveolar macrophage NR8383 cells were divided into six groups and separately cultivated with the following media for 24 hours: • (1) Control group: a macrophage growth medium containing 0.01 μg/mL LPS; • (2) Positive control group: a macrophage growth medium containing 0.01 μg/mL LPS and 1 μM Dex; and • (3) Extract A group (including four sub-groups): a macrophage growth medium containing 0.01 μg/mL LPS and the extract A provided by [preparation example A-2-2], wherein the extract A is present in the four sub-groups at a concentration of 6.25, 12.5, 25 and 50 μg/mL respectively.
(§2) Thereafter, the proteins in the cells of each group were extracted and then subjected to a Western blot to measure the expression level of pro-form MMP-9 (i.e., the zymogen form of MMP-9), active-form MMP-9 and MMP-12. The relative expression level of pro-form MMP-9, active-form MMP-9 and MMP-12 of each group was calculated by using the results of the control group as a basis (i.e., the expression level of control group was served as 1-fold).
(§3) Rat alveolar macrophage NR8383 cells were divided into ten groups and separately cultivated with the following media for 24 hours:
(§4) (1) Control group: a macrophage growth medium containing 0.01 μg/mL LPS;
(§5) (2) Positive control group: a macrophage growth medium containing 0.01 μg/mL LPS and 1 μM Dex; […]

[2] = test system: TGFβ-induced intracellular accumulation of collagen in myofibroblast WI38 cells; test: Picrosirius red staining: TGFβ-induced collagen accumulation in WI38 cells; type: cell-based; details: Table 7, 1 ng/mL TGF-β, 24 hours
Source text: As indicated above, the hyperactive expression of MMPs will cause pulmonary injury. Under the most circumstances, the response mechanisms in animals will activate, for example, macrophages will secret TGF-β and TGF-β which can promote the lung fibroblasts to secret collagen, so that the damaged tissues can be recovered. However, the hypersecretion of collagen will also lead to lung fibrosis. To investigate whether FU-LING extracts and its active ingredients are effective in regulating, protecting and/or treating the pulmonary injury-related diseases such as lung fibrosis or not, the Picrosirius red (PSR) staining was conducted as a semi-quantification of collagen, so that the inhibitory rate of FU-LING extract and its active ingredients on the TGFβ-induced intracellular accumulation of collagen in myofibroblast WI38 cells can be determined.
Myofibroblast WI38 cells (purchased from ATCC, product no. CCL75™) were divided into ten groups and separately cultivated with the following media for 48 hours:
(1) Blank group: a myolibroblast growth medium;
(2) Control group: a myofibroblast growth medium containing 1 ng/mL TGF-β (purchased from R&D system);
(3) Positive control group: a myofibroblast growth medium containing 1 ng/mL TGF-β and 200 μg/mL Pirfenidone (abbreviated as “Pir”; purchased from Sigma-Aldrich);
(4) Extract A (including four sub-groups): a myofibroblast growth medium containing 1 ng/mL TGF-β and the extract A provided by [Preparation example A-2-2], wherein the extract A is present in the four sub-groups at a concentration of 12.5, 25, 50 and 100 μg/mL respectively; and
(5) Extract B (including three sub-groups): a myofibroblast growth medium containing 1 ng/ml, TGF-β and the extract B provided by [Preparation example A-2-3], wherein the extract B is present in the […] at a concentration of 12.5, 25 and 50 μg/mL respectively.
Thereafter, the media were replaced by methanol to fix the cells at a temperature of −20° C. for 1 to 2 hours. After that, the cells were washed with PBS, and then stained with 0.1% PSR staining agent (purchased from Sigma-Aldrich) at room temperature for 4 hours. The stained cells were washed with 0.1% acetic acid, and then lysed with 0.1N sodium hydroxide to provide a lysate. The OD540 (i.e., the absorbance at a wavelength of 540 nm) of the lysate was measured. OD540 value of each group represents the content of collagen in each group, reflecting the content of collagen in fibroblast WI38 cells under different circumstances (the relative content of collagen in each group was calculated by serving the result of blank group as 0% and serving the result of control group as 100%).
Myofibroblast WI38 cells were divided into twenty-eight groups and separately cultivated with the following media for 24 hours:
(1) Blank group: a myofibroblast growth medium;
(3) Positive control group; a myofibroblast growth medium containing 1 ng/mL TGF-β and 200 μg/mL Pirfenidone (abbreviated as “Pir”; purchased from Sigma-Aldrich);
(4) Extract C group (including five sub-groups): a myofibroblast growth medium containing 1 ng/mL TGF-β and the extract C provided by [preparation example A-3-2], wherein the extract C is present in the five sub-groups at a concentration of […], 6.25 and 12.5 μg/mL respectively;
(5) Extract D group (including five sub-groups): a myofibroblast growth medium containing 1 ng/mL TGF-β and the extract D provided by [preparation example A-4-2], wherein the extract D is present in the five sub-groups at a concentration of 0.78, 1.56, 3.13, 6.25 and 12.5 μg/mL respectively;
(6) Extract E group (including five sub-groups): a myofibroblast growth medium containing 1 ng/mL TGF-β and the extract E provided by [preparation example A-4-3], wherein the extract E is present in the five sub-groups at a concentration of 0.78, 1.56, 3.13, 6.25 and 12.5 μg/mL respectively; […]

[3] = test system: active-form MMP-9; test: Western blot: active-form MMP-9 expression in LPS-treated NR8383 cells; type: cell-based, rat; details: 0.01 μg/mL LPS; 6.25, 12.5, 25 and 50 μg/mL; 24 hours
Experimental: as §1, §2, §3, §4, §5

SMILES: C=C(CC[C@@H](C(=O)O)[C@H]1[C@H](O)C[C@@]2(C)C3=CC[C@@H](C(=C)C)[C@](C)(CCC(=O)O)C3=CC[C@]12C)C(C)C [PAA, poricoic acid A]
- Expression level of MMP-12 (in words) [1]: effective in inhibiting
- Relative content of collagen (%) ([2]; 6.25 μg/mL): 82%
- Relative content of collagen (%) ([2]; 12.5 μg/mL): 78%
- Relative content of collagen (%) ([2]; 25 μg/mL): 48%
- Relative content of collagen (%) ([2]; 50 μg/mL): 0%
- Relative content of collagen (%) ([2]; 100 μg/mL): 0%
- Inhibitory rate on active-form MMP-9 (highest over tested concentrations) [3]: up to 44%
